Reference: US20240408169A1 (priority 2023, published 2024)
Like-named read-outs stand apart in the source and are kept apart here. *1 amine or outer side, *2 acyl side, *3 side chain or, on linkers, in order; H or OH if unused. Where a SMILES comes first, the peptide text is derived from it. Bridges are numbered along the chain shown (N, C = ends). [ ]: non-standard residue; d: D form. The star is where a group is joined. X184 = CC(=O)N1CCC(c2ccc(F)cc2C[C@@H](C(=O)[*:2])N(C)[*:1])CC1; X68 = CN([C@@H](Cc1cc(Cl)ccc1-c1cnn(C2CC2)c1)C(=O)[*:2])[*:1]; NMehhhLys(Me) = CN([C@@H](CCCCCCCN(C)[*:3])C(=O)[*:2])[*:1]; X112 = CN([C@@H](Cc1cc(F)ccc1-c1cnn(C)c1)C(=O)[*:2])[*:1]; X22 = CN([C@@H](Cc1cc(Cl)ccc1-c1cnn(C)c1)C(=O)[*:2])[*:1]; NMe(hhhLys) = CN([C@@H](CCCCCCCN[*:3])C(=O)[*:2])[*:1]; X210 = CC(C)=Cc1ccc(Cl)cc1C[C@@H](C(=O)[*:2])N(C)[*:1]; X164 = C=C(C)c1ccc(Cl)cc1C[C@@H](C(=O)[*:2])N(C)[*:1]; Cyclobutanecarbonyl(1-CF3) = O=C(C1(C(F)(F)F)CCC1)*; cBuCO(3,3-F2-1-CF3) = O=C(C1(C(F)(F)F)CC(F)(F)C1)*; NMePhe(2,5-Cl2) = CN[C@@H](Cc1cc(Cl)ccc1Cl)C(=O)O; Pro(trans-4-F) = O=C(O)[C@@H]1C[C@@H](F)CN1; Gly(cPr) = N[C@H](C(=O)O)C1CC1

Assays:
[1] = molecular target: T1, CyclinA2/CDK2 (Homo sapiens, UniProt P20248); assay: Fluorescence Polarization (FP) competitive binding assay, Cyclin A2/Cdk2;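 note: plates equilibrated two hours at room temperature before polarization reading, IC50 fitted from eight-concentration compound titration curves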
T1 construct: purchased CRELUX Protein Services

[2] = molecular target: T2, CyclinB1/CDK1 (Homo sapiens, UniProt P14635); assay: Fluorescence Polarization (FP) competitive binding assay, Cyclin B1/Cdk1;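 note: fluorescence polarization read after equilibration at room temperature, with IC50 taken from serially diluted dose-response curves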
T2 construct: purchased Eurofins, discovery 14-450

[3] = tested on: NCI-H1048 cells; assay: MTT proliferation assay, NCI-H1048; format: cell-based; conditions: 5 days compound exposure, 1:3 serial dilution starting at 10 μM;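 note: Dose-response in 96-well plates over 8 or 10 concentration points, with exposure spanning 3-4 cell doublings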
[4] = molecular target: T3, CyclinE1/CDK2 (Homo sapiens, UniProt P24864); assay: Fluorescence Polarization (FP) competitive binding assay, Cyclin E1/Cdk2;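 note: readings taken after two-hour equilibration at room temperature in HEPES buffer with NaCl, DTT, NP-40 and BSA, IC50 fitted from eight-concentration serial dilution series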
T3 construct: purchased Eurofins, discovery 14-475

[5] = tested on: OVCAR3 cells; assay: MTT proliferation assay, OVCAR3; format: cell-based; conditions: 5 days compound exposure, 1:3 serial dilution starting at 10 μM;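 note: compound given as an 8- or 10-point series, one day after plating, with exposure covering roughly 3-4 cell doublings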
[6] = 8 nM Cyclin A2/Cdk2, 2 nM FAM probe; average of 2-3 independent experiments; read-out: Cyclin A FP IC50
[7] = 10 nM Cyclin B1/Cdk1, 2 nM FAM probe; average of 2-3 independent experiments; read-out: Cyclin B FP IC50
[8] = 10 nM Cyclin E1/Cdk2, 2 nM FAM probe, average of 2-3 independent experiments, read-out: Cyclin E FP IC50

| Structure (SMILES) | IC50 [1, 6] | IC50 [2, 7] | GI50 [3] | IC50 [4, 8] | GI50 [5] | IC50 ([1]; read-out: Cyclin A FP IC50; 8 nM Cyclin A2/Cdk2, 2 nM FAM probe; average of 2-3 independent experiments) | IC50 ([2]; read-out: Cyclin B FP IC50; 10 nM Cyclin B1/Cdk1, 2 nM FAM probe; average of 2-3 independent experiments) | IC50 [4] |
| --- | --- | --- | --- | --- | --- | --- | --- | --- |
| CC(C)C[C@@H]1NC(=O)[C@@H](N(C)C(=O)[C@@H](NC(=O)[C@@H]2C[C@@H](F)CN2C(=O)C2(C(F)(F)F)CC(F)(F)C2)C2CC2)CC=CCCCCNC(=O)[C@H](Cc2cc(Cl)ccc2-c2cnn(CCO)c2)N(C)C1=O [Example 28] | 40 nM | 20 nM | 80 nM | 740 nM | 170 nM |  |  |  |
| CC(C)C[C@@H]1NC(=O)[C@@H](N(C)C(=O)[C@@H](NC(=O)[C@@H]2C[C@@H](F)CN2C(=O)C2(C(F)(F)F)CC(F)(F)C2)C2CC2)CC=CCCCCN(C)C(=O)[C@H](Cc2cc(Cl)ccc2-c2cnn(C)c2)N(C)C1=O [Example 29] | 30 nM | 20 nM | 40 nM | 690 nM | 70 nM |  |  |  |
| CC(C)C[C@@H]1NC(=O)[C@@H](N(C)C(=O)[C@@H](NC(=O)[C@@H]2C[C@@H](F)CN2C(=O)C2(C(F)(F)F)CC(F)(F)C2)C2CC2)CC=CCCCCN(C)C(=O)[C@H](Cc2cc(Cl)ccc2-c2cncnc2)N(C)C1=O [Example 30] | 240 nM | 20 nM | 130 nM | 5050 nM | 140 nM |  |  |  |
| CC(=O)N1CC=C(c2ccc(Cl)cc2C[C@H]2C(=O)N(C)CCCCC=CC[C@H](N(C)C(=O)[C@@H](NC(=O)[C@@H]3C[C@@H](F)CN3C(=O)C3(C(F)(F)F)CC(F)(F)C3)C3CC3)C(=O)N[C@@H](CC(C)C)C(=O)N2C)CC1 [Example 31] | 30 nM | 20 nM | 80 nM | 2200 nM | 150 nM |  |  |  |
| CC(C)C[C@@H]1NC(=O)[C@@H](N(C)C(=O)[C@@H](NC(=O)[C@@H]2C[C@@H](F)CN2C(=O)C2(C(F)(F)F)CC(F)(F)C2)C2CC2)CC=CCCCCN(C)C(=O)[C@H](Cc2cc(F)ccc2-c2cnn(C)c2)N(C)C1=O [Example 37] | 50 nM | 20 nM | 40 nM | 370 nM | 50 nM |  |  |  |
| CC(C)C[C@@H]1NC(=O)[C@@H](N(C)C(=O)[C@@H](NC(=O)[C@@H]2C[C@@H](F)CN2C(=O)C2(C(F)(F)F)CC(F)(F)C2)C2CC2)CC=CCCCCN(C)C(=O)[C@H](Cc2cc(F)ccc2-c2cncnc2)N(C)C1=O [Example 38] | 180 nM | 20 nM | 60 nM | 1760 nM | 160 nM |  |  |  |
| CC(=O)N1CC=C(c2ccc(F)cc2C[C@H]2C(=O)N(C)CCCCC=CC[C@H](N(C)C(=O)[C@@H](NC(=O)[C@@H]3C[C@@H](F)CN3C(=O)C3(C(F)(F)F)CC(F)(F)C3)C3CC3)C(=O)N[C@@H](CC(C)C)C(=O)N2C)CC1 [Example 39] | 60 nM | 20 nM | 90 nM | 940 nM | 210 nM |  |  |  |
| CC(C)C[C@@H]1NC(=O)[C@@H](N(C)C(=O)[C@@H](NC(=O)[C@@H]2C[C@@H](F)CN2C(=O)C2(C(F)(F)F)CCC2)C2CC2)CC=CCCCCN(C)C(=O)[C@H](Cc2cc(F)ccc2-c2cncnc2)N(C)C1=O [Example 41] | 160 nM | 20 nM | 100 nM | 810 nM | 130 nM |  |  |  |
| CC(=O)N1CC=C(c2ccc(F)cc2C[C@H]2C(=O)N(C)CCCCC=CC[C@H](N(C)C(=O)[C@@H](NC(=O)[C@@H]3C[C@@H](F)CN3C(=O)C3(C(F)(F)F)CCC3)C3CC3)C(=O)N[C@@H](CC(C)C)C(=O)N2C)CC1 [Example 42] | 40 nM | 20 nM | 70 nM | 440 nM | 210 nM |  |  |  |
| CC(=O)N1CCC(c2ccc(F)cc2C[C@H]2C(=O)N(C)CCCCCCC[C@H](N(C)C(=O)[C@@H](NC(=O)[C@@H]3C[C@@H](F)CN3C(=O)C3(C(F)(F)F)CC(F)(F)C3)C3CC3)C(=O)N[C@@H](CC(C)C)C(=O)N2C)CC1 [Example 45, (2S,4R)—N—((S)-2-(((3S,6S,9S)-3-(2-(1-acetylpiperidin-4-yl)-5-fluorobenzyl)-6-isobutyl-1,4-dimethyl-2,5,8-trioxo-1,4,7-triazacyclohexadecan-9-yl)(methyl)amino)-1-cyclopropyl-2-oxoethyl)-1-(3,3-difluoro-1-(trifluoromethyl)cyclobutane-1-carbonyl)-4-fluoropyrrolidine-2-carboxamide] ({cBuCO(3,3-F2-1-CF3)}-[Pro(trans-4-F)][Gly(cPr)][NMehhhLys(Me)]L[X184]; lactam 3-C) | 100 nM | 20 nM | 20 nM | 330 nM | 40 nM |  |  |  |
| CC(C)C[C@@H]1NC(=O)[C@@H](N(C)C(=O)[C@@H](NC(=O)[C@@H]2C[C@@H](F)CN2C(=O)C2(C(F)(F)F)CC(F)(F)C2)C2CC2)CC=CCCCCN(C)C(=O)[C@H](Cc2cc(F)ccc2C2=CCCC2)N(C)C1=O [Example 46] | 20 nM | 20 nM | 720 nM | 350 nM | 790 nM |  |  |  |
| CC(C)C[C@@H]1NC(=O)[C@@H](N(C)C(=O)[C@H](C)NC(=O)[C@@H]2C[C@@H](F)CN2C(=O)C2(C(F)(F)F)CC(F)(F)C2)CC=CCCCCNC(=O)[C@H](Cc2cc(Cl)ccc2Cl)N(C)C1=O [Example 54] | 390 nM | 30 nM | 470 nM | 3390 nM | 700 nM |  |  |  |
| CC(C)C[C@@H]1NC(=O)[C@@H](N(C)C(=O)[C@H](C)NC(=O)[C@@H]2C[C@@H](F)CN2C(=O)C2(C(F)(F)F)CC(F)(F)C2)CCCCCCCNC(=O)[C@H](Cc2cc(Cl)ccc2Cl)N(C)C1=O [Example 55] ({cBuCO(3,3-F2-1-CF3)}-[Pro(trans-4-F)]A[NMe(hhhLys)]L[NMePhe(2,5-Cl2)]; lactam 3-C) | 700 nM | 80 nM | 560 nM | 3930 nM | 710 nM |  |  |  |
| CC(=O)N1[C@H]2CC[C@@H]1C=C(c1ccc(F)cc1C[C@H]1C(=O)N(C)CCCCCCC[C@H](N(C)C(=O)[C@@H](NC(=O)[C@@H]3C[C@@H](F)CN3C(=O)C3(C(F)(F)F)CC(F)(F)C3)C3CC3)C(=O)N[C@@H](CC(C)C)C(=O)N1C)C2 [Example 58] |  |  | 10 nM |  | 10 nM | 20 nM | 20 nM | 620 nM |
| C=C(C)c1ccc(Cl)cc1C[C@H]1C(=O)NCCCCCCC[C@H](N(C)C(=O)[C@@H](NC(=O)[C@@H]2C[C@@H](F)CN2C(=O)C2(C(F)(F)F)CC(F)(F)C2)C2CC2)C(=O)N[C@@H](CC(C)C)C(=O)N1C [Example 61] ({cBuCO(3,3-F2-1-CF3)}-[Pro(trans-4-F)][Gly(cPr)][NMe(hhhLys)]L[X164]; lactam 3-C) | 20 nM | 20 nM | 20 nM | 1010 nM | 40 nM |  |  |  |
| CC(C)=Cc1ccc(Cl)cc1C[C@H]1C(=O)NCCCCCCC[C@H](N(C)C(=O)[C@@H](NC(=O)[C@@H]2C[C@@H](F)CN2C(=O)C2(C(F)(F)F)CC(F)(F)C2)C2CC2)C(=O)N[C@@H](CC(C)C)C(=O)N1C [Example 62] ({cBuCO(3,3-F2-1-CF3)}-[Pro(trans-4-F)][Gly(cPr)][NMe(hhhLys)]L[X210]; lactam 3-C) | 30 nM | 20 nM | 60 nM | 390 nM | 70 nM |  |  |  |
| CC(C)C[C@@H]1NC(=O)[C@@H](N(C)C(=O)[C@@H](NC(=O)[C@@H]2C[C@@H](F)CN2C(=O)C2(C(F)(F)F)CC(F)(F)C2)C2CC2)CCCCCCCN(C)C(=O)[C@H](Cc2cc(F)ccc2-c2cnn(C)c2)N(C)C1=O [Example 65] ({cBuCO(3,3-F2-1-CF3)}-[Pro(trans-4-F)][Gly(cPr)][NMehhhLys(Me)]L[X112]; lactam 3-C) | 20 nM | 20 nM | 10 nM | 270 nM | 10 nM |  |  |  |
| CC(C)C[C@@H]1NC(=O)[C@@H](N(C)C(=O)[C@@H](NC(=O)[C@@H]2C[C@@H](F)CN2C(=O)C2(C(F)(F)F)CC(F)(F)C2)C2CC2)CCCCCCCNC(=O)[C@H](Cc2cc(Cl)ccc2-c2cnn(C3CC3)c2)N(C)C1=O [Example 67] ({cBuCO(3,3-F2-1-CF3)}-[Pro(trans-4-F)][Gly(cPr)][NMe(hhhLys)]L[X68]; lactam 3-C) | 20 nM | 20 nM | 10 nM | 500 nM | 10 nM |  |  |  |
| CC(=O)N1CC=C(c2ccc(Cl)cc2C[C@H]2C(=O)N(C)CCCCCC[C@H](N(C)C(=O)[C@@H](NC(=O)[C@@H]3C[C@@H](F)CN3C(=O)C3(C(F)(F)F)CC(F)(F)C3)C3CC3)C(=O)N[C@@H](CC(C)C)C(=O)N2C)CC1 [Example 74] | 50 nM | 20 nM | 110 nM | 3620 nM | 170 nM |  |  |  |
| CC(C)C[C@@H]1NC(=O)[C@@H](N(C)C(=O)[C@@H](NC(=O)[C@@H]2CCCN2C(=O)C2(C(F)(F)F)CCC2)C2CC2)CCCCCCCN(C)C(=O)[C@H](Cc2cc(Cl)ccc2-c2cnn(C)c2)N(C)C1=O [Example 76] ({Cyclobutanecarbonyl(1-CF3)}-P[Gly(cPr)][NMehhhLys(Me)]L[X22]; lactam 3-C) | 20 nM | 20 nM | 80 nM | 880 nM | 120 nM |  |  |  |
| CC(C)C[C@@H]1NC(=O)[C@@H](N(C)C(=O)[C@@H](NC(=O)[C@@H]2CCCN2C(=O)C2(C(F)(F)F)CC(F)(F)C2)C2CC2)CCCCCCCN(C)C(=O)[C@H](Cc2cc(Cl)ccc2-c2cnn(C)c2)N(C)C1=O [Example 77] ({cBuCO(3,3-F2-1-CF3)}-P[Gly(cPr)][NMehhhLys(Me)]L[X22]; lactam 3-C) | 20 nM | 20 nM | 60 nM | 1710 nM | 70 nM |  |  |  |
